Read-outs that look alike come from different tables or passages of the source.
Key:
[1] = tested on: human peripheral blood mononuclear cells (PBMCs); assay: ELISA assay of immunocyte activator: induction of IFN-γ in human PBMCs; assay type: cell-based; conditions: 24 h, 37 °C, read-out: EC50 IFN-γ ratio (inducing human PBMCs to produce IFN-γ)
In short: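 PBMCs from heparinized blood of healthy donors, isolated by density-gradient centrifugation, seeded at 2×10^5 cells per well. Treated with ten concentrations from 0.0001 to 10 μM in RPMI medium containing 0.1 DMSO; IFN-γ measured by ELISA and EC50 derived.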

MC38-hPD-L1 cells = assay: Tumor inhibition assay in mice bearing MC38-hPD-L1 colon cancer; assay type: in vivo, mouse; conditions: PD-L1 antibody 3 mg/kg, intraperitoneal, Day 8 and Day 12 after inoculation
Experimental: MC38-hPD-L1 cells (a humanized MC38 colon cancer cell line expressing human PD-L1 protein, Shanghai Model Organisms Center, Inc.) in the logarithmic phase were collected by digestion and centrifugation, and washed with PBS twice before counting, and the cell concentration was adjusted to 2.3×10^5 cells/mL. The mice were 6-week-old SPF-grade humanized C57BL/6 mice. The right back of the mice was shaved completely with a shaver, and 100 μL of the cell suspension was aspirated with a syringe and injected subcutaneously into the back of the mice after removing bubbles. When the tumor diameter reached 4-5 mm, administration was started.
Assessment of therapeutic effect on tumor-bearing mice and antitumor effect of the compounds: tumor-bearing mice (BALB/c) were randomly divided into control group, Atezolizumab antibody group (PD-L1 antibody group), and PD-L1-KX conjugate group (Atezolizumab-conjugated compound KX) (5 mice per group). […] The tumor was measured with a vernier caliper and the survival of the mice was recorded every three days at the beginning of administration and after administration. The tumor volume was calculated by the following method: 0.5×a×b^2, wherein a is the long-axis diameter and b is the short-axis diameter. […]

[2] = Homo sapiens, PBMC, Note c: sample pretreated with Cathepsin-B (10 μg) in PBS, room temperature, 3 h
[3] = Homo sapiens, PBMC, no pretreatment marked
[4] = Homo sapiens, PBMC, Note a: sample pretreated with human liver microsomal enzyme, 2 h

Compound | EC50 [1, 3] | also measured
CCCCOc1nc(N)c2c(n1)N(Cc1cn(CCNC(=O)OCc3ccc(NC(=O)[C@H](CCCNC(N)=O)NC(=O)[C@@H](NC(=O)CCOCCOCCOCCOCCN(CCOCCOCCOCCOCCC(=O)N[C@H](C(=O)N[C@@H](CCCNC(N)=O)C(=O)Nc4ccc(COC(=O)NCCn5cc(Cn6c(=O)[nH]c7c(N)nc(OCCCC)nc76)nn5)cc4)C(C)C)C(=O)CCN4C(=O)C=CC4=O)C(C)C)cc3)nn1)C(=O)C2 [Compound K22] |  | EC50 [1, 2]: 80 nM
CC[C@@]1(O)C(=O)OCc2c1cc1n(c2=O)Cc2c-1nc1cc(F)c(C)c3c1c2[C@@H](NC(=O)CNC(=O)OCn1c(=O)n(Cc2ccc(CNC(=O)CCc4cn(CCOCCOCCOCCNC(=O)CCN5C(=O)C=CC5=O)nn4)cc2)c2nc(OCCOC)nc(N)c21)CC3 [Compound K42] |  | EC50 ([1]; Homo sapiens, PBMC, Note d: sample pretreated by hydrolysis, acetate buffer pH 5, 37 °C, 72 h): 7 nM
C=C(CN1CCC(Cn2c(=O)[nH]c3c(N)nc(O[C@@H](C)CCC)nc32)CC1)C(=O)O [KJ-097] | 1 nM | 
CCCCOc1nc(N)c2nc(O)n(Cc3cn(CCOCCOCCOCCN=[N+]=[N-])nn3)c2n1 [GY155, reference compound] |  | EC50 ([1]; no pretreatment marked): 330 nM
COCCOc1nc(N)c2[nH]c(=O)n(Cc3ccc(CNC(=O)CCC(=O)NC(CCCCc4cn(CCOCCOCCOc5c(OC)cc(/C=C/C(=O)N6CCC=CC6=O)cc5OC)nn4)C(=O)O)cc3)c2n1 (stereo not shown) [SZU-191] | 100 nM | 
C#CCCC(=O)NCc1ccc(Cn2c(=O)[nH]c3c(N)nc(OCCOC)nc32)cc1 [SZU-136, reference compound] | 370 nM | 
COCCOc1nc(N)c2[nH]c(=O)n(Cc3ccc(CNC(=O)CCC(=O)NC(CCCCc4cn(CCOCCOCCOCCNC(=O)CCN5C(=O)C=CC5=O)nn4)C(=O)N[C@H](C(=O)N[C@@H](CCCNC(N)=O)C(=O)Nc4ccc(COC(=O)NC[C@H](C)c5ccc(-c6c(O)cc(C)c7[nH]c(=O)c8sccc8c67)cc5)cc4)C(C)C)cc3)c2n1 (stereo partly shown) [Compound K3] | 200 nM | 
CCCCOc1nc(N)c2[nH]c(=O)n(CC3CCN(C(=O)/C=C/C(=O)c4ccc(OC)cc4)CC3)c2n1 [KJ-104] | 9 nM | 
CCC[C@H](C)Oc1nc(N)c2[nH]c(=O)n(CC3CCN(C(=O)/C=C/C(=O)c4ccc(OC)cc4)CC3)c2n1 [KJ-102] | 3 nM | 
C=CC(=O)N1CCN(c2ncnc3c(F)c(-c4c(F)cccc4OCCc4cn(CCCNc5nc(NCCOCCOCCOCCNC(=O)CCC(=O)NCc6ccc(Cn7c(=O)[nH]c8c(N)nc(OCCOC)nc87)cc6)nc(N6CCC(CNC(=O)OCc7ccc(NC(=O)[C@H](CCCNC(N)=O)NC(=O)[C@@H](NC(=O)CCOCCOCCOCCN=[N+]=[N-])C(C)C)cc7)CC6)n5)nn4)c(Cl)cc23)CC1 [Compound K21] | 6 nM | 
CCC[C@H](C)Oc1nc(N)c2[nH]c(=O)n(CC3CCN(CCO)CC3)c2n1 [KJ-3b, reference compound] | 210 nM | 
C=C(CN1CCC(n2cc(Cn3c(=O)[nH]c4c(N)nc(O[C@@H](C)CCC)nc43)nn2)CC1)C(=O)O [GY300] | 31 nM | 
C#Cc1c(F)ccc2cc(O)cc(-c3ncc4c(N5CC6CCC(C5)N6C(=O)OCc5ccc(NC(=O)[C@H](CCCNC(N)=O)NC(=O)[C@@H](NC(=O)C(CCCCc6cn(CCOCCOCCOCCNC(=O)CCN7C(=O)C=CC7=O)nn6)NC(=O)CCC(=O)NCc6ccc(Cn7c(=O)[nH]c8c(N)nc(OCCOC)nc87)cc6)C(C)C)cc5)nc(OC[C@@]56CCCN5C[C@H](F)C6)nc4c3F)c12 (stereo partly shown) [Compound K32] | 160 nM | 
CCCCOc1nc(N)c2c(n1)n(CC1CCN(C(=O)/C=C/C(=O)c3ccc(OC)cc3)CC1)c(=O)n2C(=O)NCCNC(=O)OCc1ccc(NC(=O)[C@H](CCCNC(N)=O)NC(=O)[C@@H](NC(=O)CCOCCOCCOCCOCCNC(=O)CCC(=O)N2Cc3ccccc3C#Cc3ccccc32)C(C)C)cc1 [Compound K58] |  | EC50 ([1]; Note a: sample pretreated with human liver microsomal enzyme, 2 h): 9 nM
Atezolizumab: PD-L1 antibody purchased from MedChemExpress (Atezolizumab, CAS number: 1380723-44-3) |  | tumor volume inhibition rate (Atezolizumab as control) (MC38-hPD-L1 cells): 67%
CCCCOc1nc(N)c2c(n1)c(Cc1ccc3c(c1)CN(C(=O)/C=C/C(=O)c1ccc(OC)cc1)CC3)cn2C(=O)OCc1ccc(NC(=O)[C@H](CCCNC(N)=O)NC(=O)[C@@H](NC(=O)CCOCCOCCOCCOCCN2C(=O)C=CC2=O)C(C)C)cc1 [Compound K13] |  | EC50 [1, 2]: 110 nM
COCCOc1nc(N)c2[nH]c(=O)n(Cc3ccc(CNC(=O)CCC(=O)NC(CCCCc4cn(CCCCN5CCN(CCCNC(=S)N6CCCC(n7nc(-c8ccc(Oc9ccccc9)cc8)c8c(N)ncnc87)C6)CC5)nn4)C(=O)N4CCN(C(=O)OCc5ccc(NC(=O)[C@H](CCCNC(N)=O)NC(=O)[C@@H](NC(=O)CCOCCOCCOCCOCCN6C(=O)C=CC6=O)C(C)C)cc5)CC4)cc3)c2n1 (stereo partly shown) [Compound K27] | 250 nM | 
CCOC(=O)NC(=O)n1c(=O)n(Cc2ccc(CNC(=O)CCc3cn(CCOCCOCCOCCNC(=O)CCN4C(=O)C=CC4=O)nn3)cc2)c2nc(OCCOC)nc(N)c21 [Compound K14] |  | EC50 [1, 4]: 10 nM
C=C(COC(=O)n1c(=O)n(Cc2ccc(CNC(=O)CCc3cn(CCOCCOCCOCCOCCN=[N+]=[N-])nn3)cc2)c2nc(OCCOC)nc(N)c21)C(=O)OCC [Compound K45] |  | EC50 ([1]; Homo sapiens, PBMC, pH 6, 24 h, Note b: sample pretreated with equimolar glutathione, PBS pH 6, 37 °C): 10 nM
COCCOc1nc(N)c2[nH]c(=O)n(Cc3ccc(CNC(=O)CCC(=O)NC(CCCCNC(=O)OCc4ccc(NC(=O)[C@H](CCCNC(N)=O)NC(=O)[C@@H](NC(=O)CCCCCN5C(=O)C=CC5=O)C(C)C)cc4)C(=O)NCCOCCOCCOCCOc4ccc(-c5nnc(C)nn5)cc4)cc3)c2n1 (stereo partly shown) [Compound K29] | 31 nM | 
C#CCn1c(=O)[nH]c2c(N)nc(OCCCC)nc21 [GY100, reference compound] | 110 nM | 
CCC[C@H](C)Oc1nc(N)c2[nH]c(=O)n(CC3CCNCC3)c2n1 [KJ-1b, reference compound] | 18 nM | 
COCCOc1nc(N)c2[nH]c(=O)n(Cc3ccc(CNC(=O)CCc4cn(CCOCCOCCOCCNC(=O)CCN5C(=O)C=CC5=O)nn4)cc3)c2n1 [KJ-008] | 7 nM | 
CCCCOc1nc(N)c2c(n1)n(Cc1cn(CCOCCOCCOCCNC(=O)OCc3ccc(NC(=O)[C@H](CCCNC(N)=O)NC(=O)[C@@H](NC(=O)CCCCC(=O)O)C(C)C)cc3)nn1)c(=O)n2C1CCCO1 (stereo partly shown) [Compound K9] |  | EC50 [1, 4]: 9000 nM
COCCOc1nc(N)c2[nH]c(=O)n(Cc3ccc(CNC(=O)CCC(=O)NC(CCCCc4cn(CCOCCOCCOCCNC(=O)CCOCCOCCNC(=O)OCC5C6CCC#CCCC65)nn4)C(=O)N[C@H](C(=O)N[C@@H](CCCNC(N)=O)C(=O)Nc4ccc(COC(=O)NC[C@H](C)c5ccc(-c6c(O)cc(C)c7[nH]c(=O)c8sccc8c67)cc5)cc4)C(C)C)cc3)c2n1 (stereo partly shown) [Compound K31] | 29 nM | 

Source: patent publication US20260325661A1, “ANTIBODY-CONJUGATED IMMUNO-ACTIVATING SMALL MOLECULE COMPOUND, AND USE” (SHENZHEN CONJUGENIX PHARMACEUTICAL TECHNOLOGY CO., LTD, priority 2023, published 2026)
